Data reported in patent publication US20150376654A1 (priority 2011, published 2015).
Where two headings read alike, the source gives them in different places.

Key:
[1] = test system: Clostridium ljungdahlii pMTL83155-groESL (phosphotransacetylase promoter); settings: construct with the phosphotransacetylase/acetate kinase operon promoter
Experimental: In addition, the effect of different promoter sequences was evaluated. The two strong C. autoethanogenum promoters of pyruvate:ferredoxin oxidoreductase and phosphotransacetylase/acetate kinase operon were used.

[2] = test system: C. autoethanogenum DSM10061 chaperone over-expressing (pMTL83156-groESL) transformants; settings: for OD600 reached: 37 h post inoculation, MMYF medium
Experimental: (§1) The experiment was first conducted as described above using PETC medium and autotrophic conditions with CO as substrate (FIG. 16a) and afterwards repeated using a different growth medium and heterotrophic conditions with fructose as substrate to rule out the effect of the growth media and substrate (FIG. 16b). A plasmid control was included. […] For ethanol challenge assay, 500 μL of two day old cultures were inoculated into each of five 60 mL serum bottles containing 20 mL of selective MMYF medium and incubated at 37° C. without agitation. […] Static incubation at 37° C. was allowed for 80-100 hours and the growth was monitored by measuring the optical density at a wavelength of 600 nm using Jenway 7300 spectrophotometer. Microscope examinations were routinely carried out.
(§2) The experiment was first conducted as described above using PETC medium and autotrophic conditions with CO as substrate (FIG. 16a) and afterwards repeated using a different growth medium and heterotrophic conditions with fructose as substrate to rule out the effect of the growth media and substrate (FIG. 16b). A plasmid control was included. Both plasmid control (pMTL83157) transformants and chaperone over-expressing (pMTL83156-groESL) transformants were cultured anaerobically in MMYF medium supplemented with freshly prepared 7.5 μg/mL thiamphenicol (final concentration). For ethanol challenge assay, 500 μL of two day old cultures were inoculated into each of five 60 mL serum bottles containing 20 mL of selective MMYF medium and incubated at 37° C. without agitation. […] Static incubation at 37° C. was allowed for 80-100 hours and the growth was monitored by measuring the optical density at a wavelength of 600 nm using Jenway 7300 spectrophotometer. Microscope examinations were routinely carried out.

[3] = test system: Clostridium ljungdahlii DSM13583 pMTL83156-groESL transformants
[4] = test system: Clostridium autoethanogenum DSM23693
Experimental: (§3) The ethanol tolerance of three acetogenic strains Clostridium ljungdahlii DSM13583, Clostridium autoethanogenum DSM10061, and C. autoethanogenum DSM23693 was tested in serum bottles.
(§4) Ethanol was added in various concentrations to an active growing culture at 37° C. in PETC medium (Table 1) with 30 psi steel mill gas as substrate. The media was prepared by using standard anaerobic techniques (Hungate R E. A roll tube method for cultivation of strict anaerobes, In Norris J R and Ribbons D W (eds.), Methods in Microbiology, vol. 3B. Academic Press, N Y, 1969: 117-132; Breznak J A and Costilow R N, Physicochemical factors in growth, In Gerhardt P (ed.), Methods for general and molecular bacteriology. American Society for Microbiology, Washington, 1994: 137-154). […] Slightly acidified water was used (0.005 M H2SO4) as mobile phase with a flow rate of 0.7 ml/min. To remove proteins and other cell residues, 400 μl samples were mixed with 100 μl of a 2% (w/v) 5-Sulfosalicylic acid and centrifuged at 14,000×g for 3 min to separate precipitated residues. 10 μl of the supernatant were then injected into the HPLC for analyses.

[5] = test system: Clostridium autoethanogenum DSM10061
Experimental: as §3, §4

[6] = test system: Clostridium ljungdahlii DSM13583; settings: 50 g/L ethanol, serum bottle studies
Experimental: as §3, §4

[7] = test system: Clostridium ljungdahlii DSM13583 pMTL83157 plasmid control
[8] = test system: C. autoethanogenum DSM10061 plasmid control (pMTL83157) transformants; experiment: microbe, parasite or virus in culture
Experimental: (§5) Anaerobic ethanol was administered at 12 hour post inoculation.
as §1, §2

[9] = test system: C. autoethanogenum DSM10061 pMTL83156-grpE-dnaK-dnaJ transformant; settings: 5 g/L, 10 g/L and 25 g/L ethanol, up to 102 h post inoculation
Experimental: as §5, §1
The experiment was first conducted as described above using PETC medium and autotrophic conditions with CO as substrate (FIG. 16a) and afterwards repeated using a different growth medium and heterotrophic conditions with fructose as substrate to rule out the effect of the growth media and substrate (FIG. 16b). A plasmid control was included. […] Static incubation at 37° C. was allowed for 80-100 hours and the growth was monitored by measuring the optical density at a wavelength of 600 nm using Jenway 7300 spectrophotometer. […]

[10] = test system: Clostridium ljungdahlii DSM13583 pMTL83156-grpE-dnaK-dnaJ transformants
[11] = test system: Zymomonas mobilis or Lactococcus strains; settings: cited from earlier work
[12] = test system: C. autoethanogenum DSM23693 transformed strain carrying plasmid pMTL85246-GroESL; settings: PETC media, 30 psi steel mill gas, biomass at 600 nm
Experimental: (§6) To investigate whether overexpression of GroESL enhances ethanol tolerance of C. autoethanogenum DSM23693, both wild-type (WT), i.e. parental microorganism and transformed strain carrying plasmid pMTL85246-GroESL were challenged with different concentrations of ethanol (FIG. 8).
(§7) Growth experiments in triplicates were carried out in 50 ml PETC media (Table 1) in serum bottles sealed with rubber stoppers and 30 psi steel mill gas (collected from New Zealand Steel site in Glenbrook, NZ; composition: 44% CO, 32% N2, 22% CO2, 2% H2) in the headspace as sole energy and carbon source. […] All cultures were inoculated to the same optical density using the same pre-culture for either wild-type (parental) or transformed strain. Changes in biomass were measured spectrophotometrically at 600 nm until growth ceased. The maximum biomass of each culture was compared with the unchallenged culture.

[13] = test system: C. autoethanogenum DSM23693 wild-type (WT), parental; settings: PETC media, 30 psi steel mill gas
Experimental: as §6, §7

majority of bacteria = settings: cited from earlier work
[14] = test system: Two species of the genus Clostridium; settings: cited from earlier work
[15] = test system: Clostridium acetobutylicum overproducing GroESL; settings: overproduction of GroESL; cited from earlier work
[16] = 5 g/L ethanol added after 12 hours, 66 hours
[17] = 50 g/L ethanol, serum bottle studies
[18] = Clostridium autoethanogenum, DSM10061, read-out: OD600 inhibition (% reduction in OD600 relative to unchallenged culture)

Compound: CCO [ethanol]
- ethanol tolerance over the wild-type [1]: didn't enhance ethanol tolerance
- OD600 reached ([2]; 5 g/L ethanol added 12 hour post inoculation): 0.38
- growth relative to plasmid control ([2]; 5 g/L, 10 g/L and 25 g/L ethanol at 12 hour post inoculation): significantly earlier growth
- growth in presence of ethanol ([2]; 25 g/L ethanol): able to grow
- OD600 reached ([2]; 25 g/L ethanol added 12 hour post inoculation): 0.31
- growth in presence of ethanol ([2]; 50 g/L ethanol): able to grow
- biomass relative to plasmid control ([2]; all levels of ethanol challenge): higher biomass
- change in OD600 [3]: reduction in OD600
- ethanol tolerance over the wild-type [3]: significantly enhanced
- time to reach OD600 of ~0.6 relative to plasmid control [3]: significantly earlier
- OD600 [3, 16]: 0.97
- OD600 ([3]; 25 g/L ethanol added after 12 hours, 36 h post inoculation): 0.42
- natural tolerance to ethanol ([4]; 25 g/L ethanol): tolerant
- growth in presence of ethanol [4, 17]: none of the strains was able to grow
- ethanol concentration at which growth was inhibited ([4]; serum bottles, PETC medium, 37° C., 30 psi steel mill gas): 10-20 g/l
- growth in presence of ethanol ([5]; 25 g/L ethanol): unable to grow
- growth in presence of ethanol [5, 17]: none of the strains was able to grow
- growth in presence of ethanol [6]: none of the strains was able to grow
- change in OD600 [7]: reduction in OD600
- OD600 [7, 16]: ~0.66
- OD600 ([7]; 10 g/L ethanol added after 12 hours, 101 h post inoculation): 0.67
- OD600 ([7]; 25 g/L ethanol added after 12 hours, 30 h post inoculation): 0.20
- time to exceed OD600 0.25 ([8]; 5 g/L ethanol added 12 hour post inoculation, MMYF medium): more than 102 h
- OD600 reached ([8]; 25 g/L ethanol added 12 hour post inoculation, 78 h post inoculation, MMYF medium): 0.29
- inhibition at 10000 µg/mL [8, 18]: 74%
- inhibition at 25000 µg/mL [8, 18]: 79%
- growth inhibition by ethanol challenge relative to plasmid control [9]: significantly less inhibited
- OD600 relative to plasmid controls [10]: higher OD600 than plasmid controls
- time to reach OD600 of ~0.6 relative to plasmid control [10]: significantly earlier
- OD600 [10, 16]: 1.12
- OD600 ([10]; 10 g/L ethanol added after 12 hours, 114 h post inoculation): 1.15
- OD600 ([10]; 25 g/L ethanol added after 12 hours, 36 hrs. post inoculation): 0.48
- increase in OD600 ([10]; 50 g/L ethanol challenge at 12 hour post inoculation): 0.096
- tolerated ethanol [11]: more than 10%
- doublings of culture when challenged with ethanol ([12]; 45 g/l ethanol): 2.14 times
- doublings of culture when challenged with ethanol ([12]; 60 g/l ethanol): 1.27 times
- doubling of culture when challenged with ethanol ([13]; 45 g/l ethanol, biomass at 600 nm): 0.39 doubling
- biomass change when ethanol was added ([13]; 60 g/l ethanol): biomass even dropped
- growth after addition of ethanol ([13]; 60 g/l ethanol): ceased
- maximum tolerated ethanol (majority of bacteria): 4-7%

Compound: butanol
- tolerated butanol level [14]: around 1.5%
- reduction of inhibition by butanol challenge compared to the wild-type [15]: up to 85%
- tolerated butanol level (hardly exceeded) (majority of bacteria): 1.5-2.5%
